Measurements reported in patent US20240034743A9, “TRICYCLIC COMPOUNDS AS EGFR INHIBITORS” (QILU PHARMACEUTICAL CO., LTD., priority 2020, published 2024).
Like-named read-outs stand apart in the source and are kept apart here.

What was measured:
EGFR WT (wild type EGFR) = EGFR WT (wild type EGFR) (Homo sapiens (Human), UniProt P00533); assay: In vitro enzymatic TR-FRET (HTRF KinEASE-TK) kinase assay, EGFR WT; type: biochemical
Outline: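 Recombinant enzyme preincubated with compound 10 min at room temperature in kinase buffer with 5 mM MgCl2, 1 mM MnCl2, 1 mM DTT. Biotinylated TK substrate plus ATP then added for 40 min. HTRF detection (Sa-XL665, Cryptate antibody) for 1 h; IC50 from 665/615 nm ratio.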

EGFR L858R/T790M/C797S = EGFR L858R/T790M/C797S (Homo sapiens (Human), UniProt P00533, C797S/L858R/T790M); assay: In vitro enzymatic TR-FRET (HTRF KinEASE-TK) kinase assay, EGFR L858R/T790M/C797S; type: biochemical; conditions: kinase activity
Protocol: (I) In Vitro Enzymatic Experiment for EGFR WT and EGFR L858R/T790M/C797S
In the assay, the inhibition effect of the compound on the kinase activity of EGFR WT (wild type EGFR) and EGFR L858R/T790M/C797S was tested by adopting a time-resolved fluorescence resonance energy transfer (TR-FRET) method, and half maximal inhibitory concentration IC50 of the compound on the kinase activity of EGFR was obtained.
EGFR recombinase and EGFR L858R/T790M/C797S recombinase, purchased from Signalchem.
HTRF KinEASE-TK kit, purchased from Cisbio.
DTT, MnCl2, and MgCl2, purchased from Sigma.
ATP, purchased from Promega.
Brigatinib, purchased from Selleck.
1) 1× working solution was prepared: 5 mM MgCl2; 1 mM DTT; 1 mM MnCl2 and 1× kinase buffer (in kit).
2) […] of gradiently-diluted compound was transferred to a 384-well plate using Echo 550 (Labcyte).
3) 5 μL of 2× EGFR WT or EGFR L858R/T790M/C797S recombinase solution was added to the 384-well plate, and the plate was incubated at room temperature for 10 min.
4) 5 μL of 2× TK-substrate-biotin substrate solution (containing ATP) was added to the 384-well plate, and the plate was incubated at room temperature for 40 min.
5) 5 μL of assay solution containing Sa-XL 665 HTRF and 5 μL of TK-antibody-Cryptatewas were added to the plate, and the plate was incubated at room temperature for 1 h.
6) The fluorescence signal values at 615 nm and 665 nm were measured for each well using an Envision microplate reader (PerkinElmer).
7) The ratio of fluorescence signal values at 665 nm and 615 nm was calculated for each well.
8) Data analysis was performed using GraphPad Prism software to give the IC50 for compounds.

A431 cells (EGFR WT) = assay: A431 cell proliferation inhibition assay (CellTiter-Glo); type: cell-based
Outline: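 Seeded cells grown 24 h, then exposed 72 h (37° C, 5% CO2) to graded compound dilutions at 0.1% DMSO final. Viability read by CellTiter-Glo luminescence after 30 min at room temperature; IC50 fitted from the dose curve.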

[1] = test system: Ba/F3_Del19/T790M/C797S cells; assay: Ba/F3_Del19/T790M/C797S cell proliferation inhibition assay (CellTiter-Glo); type: cell-based
Outline: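 Ba/F3 cells carrying EGFR Del19/T790M/C797S were seeded at 700 cells/well and exposed to serially diluted compound (0.1% DMSO final) for 72 h at 37° C. Viability was read by CellTiter-Glo luminescence to give IC50.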

[2] = test system: Ba/F3_L858R/T790M/C797S cells; assay: Ba/F3_L858R/T790M/C797S cell proliferation inhibition assay (CellTiter-Glo); type: cell-based
Outline: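 Ba/F3 cells engineered to carry EGFR L858R/T790M/C797S, seeded at 700 cells/well, exposed to serially diluted compound (0.1% DMSO final) for 72 h at 37 °C, 5% CO2. Viability read by CellTiter-Glo luminescence after 30 min at room temperature; IC50 from dose-response fit.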

[3] = kinase activity, TR-FRET, read-out: EGFR (WT) IC50
[4] = Homo sapiens, A-431, cell proliferation, 72 h, CellTiter-Glo, read-out: A431 EGFR WT IC50
[5] = Mus musculus, BaF3, cell proliferation, 72 h, CellTiter-Glo, read-out: Ba/F3 (Del19/T790M/C797S) IC50
[6] = Mus musculus, BaF3, cell proliferation, 72 h, CellTiter-Glo, read-out: Ba/F3 (L858R/T790M/C797S) IC50
[7] = Homo sapiens, A-431, 72 h, read-out: A431 EGFR WT IC50(nM)
[8] = Mus musculus, BaF3, 72 h, read-out: Ba/F3 (Del19/T790M/C797S) IC50(nM)
[9] = Mus musculus, BaF3, 72 h, read-out: Ba/F3 (L858R/T790M/C797S) IC50(nM)

Chain of EGFR WT (wild type EGFR) (P00533 25-1210): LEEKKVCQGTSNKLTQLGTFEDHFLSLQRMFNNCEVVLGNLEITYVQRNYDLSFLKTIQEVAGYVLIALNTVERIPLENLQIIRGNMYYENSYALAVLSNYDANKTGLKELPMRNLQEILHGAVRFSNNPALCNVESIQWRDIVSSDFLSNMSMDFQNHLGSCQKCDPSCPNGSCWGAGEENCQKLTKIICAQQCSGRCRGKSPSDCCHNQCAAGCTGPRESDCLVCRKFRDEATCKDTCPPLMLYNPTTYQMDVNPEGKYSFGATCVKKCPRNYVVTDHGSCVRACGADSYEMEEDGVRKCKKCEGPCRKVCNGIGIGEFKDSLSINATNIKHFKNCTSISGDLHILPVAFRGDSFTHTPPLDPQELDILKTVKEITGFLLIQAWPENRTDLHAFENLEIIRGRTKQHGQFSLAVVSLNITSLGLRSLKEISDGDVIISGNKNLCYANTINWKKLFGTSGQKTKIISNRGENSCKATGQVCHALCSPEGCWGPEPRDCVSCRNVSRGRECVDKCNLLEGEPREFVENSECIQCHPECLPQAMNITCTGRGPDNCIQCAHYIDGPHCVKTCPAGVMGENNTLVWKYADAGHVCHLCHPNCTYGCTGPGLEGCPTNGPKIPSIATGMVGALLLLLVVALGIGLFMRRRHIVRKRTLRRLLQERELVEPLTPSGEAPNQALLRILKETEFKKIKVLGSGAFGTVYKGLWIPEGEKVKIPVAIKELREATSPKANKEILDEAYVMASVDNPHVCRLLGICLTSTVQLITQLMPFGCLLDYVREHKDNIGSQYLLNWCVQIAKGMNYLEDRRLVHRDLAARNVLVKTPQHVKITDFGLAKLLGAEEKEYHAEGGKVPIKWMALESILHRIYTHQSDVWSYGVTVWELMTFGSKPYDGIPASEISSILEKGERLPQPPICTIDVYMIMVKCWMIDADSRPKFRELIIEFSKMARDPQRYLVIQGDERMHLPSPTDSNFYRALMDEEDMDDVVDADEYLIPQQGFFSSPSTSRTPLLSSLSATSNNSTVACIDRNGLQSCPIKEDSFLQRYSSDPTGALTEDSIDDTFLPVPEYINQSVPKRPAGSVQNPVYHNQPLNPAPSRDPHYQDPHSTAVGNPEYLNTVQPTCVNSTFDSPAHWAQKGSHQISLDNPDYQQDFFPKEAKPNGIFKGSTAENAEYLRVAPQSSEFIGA
Chain of EGFR L858R/T790M/C797S (P00533 25-1210 T790M/C797S/L858R): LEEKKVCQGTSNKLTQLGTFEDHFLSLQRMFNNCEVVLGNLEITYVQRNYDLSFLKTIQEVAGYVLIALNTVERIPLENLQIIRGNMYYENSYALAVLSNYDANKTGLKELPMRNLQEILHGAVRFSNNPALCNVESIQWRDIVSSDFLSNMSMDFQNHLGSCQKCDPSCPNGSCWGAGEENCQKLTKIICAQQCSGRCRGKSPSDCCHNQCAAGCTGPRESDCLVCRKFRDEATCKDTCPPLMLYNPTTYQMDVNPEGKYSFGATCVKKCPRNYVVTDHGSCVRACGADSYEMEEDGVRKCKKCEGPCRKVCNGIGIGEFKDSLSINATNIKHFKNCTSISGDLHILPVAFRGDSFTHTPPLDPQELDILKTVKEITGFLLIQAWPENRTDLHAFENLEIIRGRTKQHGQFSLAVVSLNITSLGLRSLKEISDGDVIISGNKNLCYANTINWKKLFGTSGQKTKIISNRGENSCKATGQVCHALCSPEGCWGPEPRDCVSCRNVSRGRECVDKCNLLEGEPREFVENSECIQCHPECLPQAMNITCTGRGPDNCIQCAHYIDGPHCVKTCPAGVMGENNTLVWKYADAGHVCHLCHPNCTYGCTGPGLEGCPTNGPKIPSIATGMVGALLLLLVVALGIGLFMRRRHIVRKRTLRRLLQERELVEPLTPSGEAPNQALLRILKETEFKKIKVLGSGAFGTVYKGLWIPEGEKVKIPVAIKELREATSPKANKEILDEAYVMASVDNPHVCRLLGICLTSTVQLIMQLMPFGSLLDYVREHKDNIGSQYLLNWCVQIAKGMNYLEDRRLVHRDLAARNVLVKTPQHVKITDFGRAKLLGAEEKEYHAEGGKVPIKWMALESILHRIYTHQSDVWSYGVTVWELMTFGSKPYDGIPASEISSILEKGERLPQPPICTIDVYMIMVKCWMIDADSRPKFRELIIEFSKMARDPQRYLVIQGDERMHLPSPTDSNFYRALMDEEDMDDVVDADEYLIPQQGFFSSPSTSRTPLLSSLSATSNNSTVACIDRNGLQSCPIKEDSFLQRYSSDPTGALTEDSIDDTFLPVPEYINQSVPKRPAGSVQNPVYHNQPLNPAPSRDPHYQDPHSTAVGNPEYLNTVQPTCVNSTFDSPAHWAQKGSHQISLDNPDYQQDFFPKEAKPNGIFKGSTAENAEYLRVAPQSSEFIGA

Row | SMILES | IC50 (EGFR WT (wild type EGFR); [3]) | IC50 (EGFR L858R/T790M/C797S) | IC50 (A431 cells (EGFR WT); [4]) | IC50 [1, 5] | IC50 [2, 6] | IC50 (A431 cells (EGFR WT); cell proliferation, 72 h, CellTiter-Glo, read-out: A431 EGFR WT IC50) | IC50 ([1]; cell proliferation, 72 h, CellTiter-Glo, read-out: Ba/F3 (Del19/T790M/C797S) IC50) | IC50 ([2]; cell proliferation, 72 h, CellTiter-Glo, read-out: Ba/F3 (L858R/T790M/C797S) IC50) | IC50 (A431 cells (EGFR WT); [7]) | IC50 [1, 8] | IC50 [2, 9] | IC50 (EGFR WT (wild type EGFR))
1 | COc1ccc(Cn2ncc3c2CCN(C)c2cc(OC)c(Nc4ncc(Br)c(Nc5ccccc5P(C)(C)=O)n4)cc2-3)cc1 [Compound 34] | 50 to 100 nM | 1 to 10 nM | > 1000 nM | 10 to 50 nM | 10 to 50 nM |  |  |  |  |  |  | 
2 | Cc1cnc(Nc2cc3c(cc2OC(C)C)N(C)CCc2c-3cnn2C)nc1Nc1ccccc1P(C)(C)=O [Compound 18] | 50 to 100 nM | 1 to 10 nM | > 1000 nM | 50 to 100 nM | 100 to 1000 nM |  |  |  |  |  |  | 
3 | CCN(c1c(Nc2nc(Nc3cc4c(cc3OC)N(C(C)C)CCc3c-4cnn3C)ncc2Br)ccc2nccnc12)S(C)(=O)=O [Compound 134] | 10 to 50 nM | 1 to 10 nM |  |  |  |  |  |  | 100 to 1000 nM | < 10 nM | 10 to 50 nM | 
4 | COc1cc2c(cc1Nc1ncc(Br)c(Nc3ccc4nccnc4c3NS(C)(=O)=O)n1)-c1cnn(C)c1CCN2C1CCC1 [Compound 135] | 1 to 10 nM | 1 to 10 nM |  |  |  |  |  |  | 100 to 1000 nM | < 10 nM | < 10 nM | 
5 | COc1cc2c(cc1Nc1ncc(Br)c(Nc3ccccc3P(C)(C)=O)n1)-c1cn(C3COC3)nc1CCN2C(C)C [Compound 77B] | 100 to 1000 nM | 1 to 10 nM |  |  |  | 100 to 1000 nM | 50 to 100 nM | 50 to 100 nM |  |  |  | 
6 | COc1cc2c(cc1Nc1ncc(Br)c(Nc3ccccc3P(C)(C)=S)n1)-c1cnn(C)c1CCN2C1CCN(C)CC1 [Compound 101] |  |  |  |  |  |  |  |  | 100 to 1000 nM | < 10 nM | < 10 nM | 1 to 10 nM

The next lines start with results.

Row | IC50 (EGFR WT (wild type EGFR); [3]) | IC50 (EGFR L858R/T790M/C797S) | IC50 (A431 cells (EGFR WT); [4]) | IC50 [1, 5] | IC50 [2, 6] | IC50 (A431 cells (EGFR WT); cell proliferation, 72 h, CellTiter-Glo, read-out: A431 EGFR WT IC50) | IC50 ([1]; cell proliferation, 72 h, CellTiter-Glo, read-out: Ba/F3 (Del19/T790M/C797S) IC50) | IC50 ([2]; cell proliferation, 72 h, CellTiter-Glo, read-out: Ba/F3 (L858R/T790M/C797S) IC50) | SMILES | IC50 (A431 cells (EGFR WT); [7]) | IC50 [1, 8] | IC50 [2, 9] | IC50 (EGFR WT (wild type EGFR))
7 | 50 to 100 nM | 1 to 10 nM | 100 to 1000 nM | 10 to 50 nM | 50 to 100 nM |  |  |  | COc1cc2c(cc1Nc1ncc(Br)c(Nc3ccc4nccnc4c3NS(C)(=O)=O)n1)-c1cccnc1CCN2C(C)C [Compound 116] |  |  |  | 
8 | 50 to 100 nM | 1 to 10 nM | 100 to 1000 nM | 10 to 50 nM | 50 to 100 nM |  |  |  | COc1ccc(CN2Cc3cc(OC)c(Nc4ncc(Br)c(Nc5ccc6nccnc6c5P(C)(C)=O)n4)cc3-c3cnn(C)c3C2)c(OC)c1 [Compound 57] |  |  |  | 
9 | 1 to 10 nM | 1 to 10 nM | 100 to 1000 nM | < 10 nM | 10 to 50 nM |  |  |  | COc1nc2c(cc1Nc1ncc(Br)c(Nc3ccc4nccnc4c3NS(C)(=O)=O)n1)-c1cnn(C)c1CCN2C(C)C [Compound 86] |  |  |  | 
10 | 10 to 50 nM | < 1 nM | 100 to 1000 nM | < 10 nM | 10 to 50 nM |  |  |  | COc1cc2c(cc1Nc1ncc(Br)c(Nc3ccc4nccnc4c3P(C)(C)=O)n1)-c1cccnc1CCN2C [Compound 108] |  |  |  | 
11 | < 1 nM | < 1 nM | 100 to 1000 nM | < 10 nM | 10 to 50 nM |  |  |  | COc1cc2c(cc1Nc1ncc(Br)c(Nc3ccc4nccnc4c3P3(=O)CCN(C)CC3)n1)-c1cnn(C)c1CCN2C(C)C [Compound 91] |  |  |  | 
12 | 10 to 50 nM | 1 to 10 nM | 100 to 1000 nM | 10 to 50 nM | 10 to 50 nM |  |  |  | COc1cc2c(cc1Nc1ncc(Br)c(Nc3ccc4nccnc4c3N3CCCS3(=O)=O)n1)-c1cnn(C)c1CCN2C(C)C [Compound 118] |  |  |  | 
13 | > 1000 nM | 100 to 1000 nM | 100 to 1000 nM | < 10 nM | 10 to 50 nM |  |  |  | COc1cc2c(cc1Nc1ncc(Br)c(Nc3ccc4nccnc4c3NS(C)(=O)=O)n1)-c1cnn(C)c1CCN2CC(F)(F)F [Compound 125] |  |  |  | 
14 | < 1 nM | < 1 nM | 50 to 100 nM | < 10 nM | < 10 nM |  |  |  | COc1cc2c(cc1Nc1ncc(C)c(Nc3ccc4nccnc4c3P(C)(C)=O)n1)-c1cnn(C)c1CCN2C [Compound 5] |  |  |  | 
